Laboratory results as given in the NIST ThermoML archive (doi:10.1021/je101178u).
“And” between values parts separate entries of the source, which are not always exact repeats. Equal entries are not always repeated. ± gives the expanded uncertainty stated by the source.

Conditions: 307.15 K, Fluid (supercritical or subcritical phases); for viscosity: vibrating wire; for mass density: Buoyancy - hydrostatic balance with magnetic suspension - one sinker

CC [ethane]
Conditions | mass density | viscosity
5348.1 kPa | – | 0.03109 ± 0.00064 mPa·s
5348.3 kPa | 282.116 ± 0.81 kg/m3 | 0.03109 ± 0.00065 mPa·s
5348.5 kPa | 282.128 ± 0.81 kg/m3 | 0.0311 ± 0.00064 mPa·s
5348.6 kPa | 282.136 ± 0.81 kg/m3 | 0.0311 ± 0.00065 mPa·s
5367.9 kPa | 283.622 ± 0.61 kg/m3 | 0.0314 ± 0.00019 mPa·s
5368.5 kPa | 283.666 ± 0.61 kg/m3 | 0.0314 ± 0.00019 mPa·s
5369.1 kPa | 283.708 ± 0.61 kg/m3 | 0.03144 ± 0.00019 mPa·s
5369.4 kPa | 283.73 ± 0.61 kg/m3 | 0.03141 ± 0.00019 mPa·s
5648.1 kPa | 299.179 ± 0.69 kg/m3 | 0.03389 ± 0.00027 mPa·s
5648.3 kPa | 299.189 ± 0.69 kg/m3 | 0.03388 ± 0.00027 mPa·s
5648.7 kPa | 299.204 ± 0.69 kg/m3 | 0.03392 ± 0.00027 mPa·s
5648.8 kPa | 299.208 ± 0.69 kg/m3 | 0.03391 ± 0.00027 mPa·s
5673.9 kPa | 300.263 ± 0.65 kg/m3 and 300.265 ± 0.65 kg/m3 | 0.0342 ± 0.00021 mPa·s and 0.03418 ± 0.00021 mPa·s
5674 kPa | 300.27 ± 0.65 kg/m3 | 0.03416 ± 0.00021 mPa·s
5674.2 kPa | 300.276 ± 0.65 kg/m3 | 0.03417 ± 0.00021 mPa·s
6326.2 kPa | 319.788 ± 0.88 kg/m3 | 0.03773 ± 0.00023 mPa·s
6328.2 kPa | 319.833 ± 0.88 kg/m3 | 0.03774 ± 0.00023 mPa·s
6328.5 kPa | 319.84 ± 0.88 kg/m3 | 0.03772 ± 0.00023 mPa·s
6328.9 kPa | 319.85 ± 0.88 kg/m3 | 0.03776 ± 0.00023 mPa·s
6343.9 kPa | 320.187 ± 0.69 kg/m3 | 0.03781 ± 0.00023 mPa·s
6344.7 kPa | 320.206 ± 0.69 kg/m3 | 0.03783 ± 0.00023 mPa·s
6346 kPa | 320.235 ± 0.69 kg/m3 | 0.03784 ± 0.00023 mPa·s
6347.2 kPa | 320.26 ± 0.69 kg/m3 | 0.03783 ± 0.00023 mPa·s
7598.2 kPa | 341.1 ± 1 kg/m3 | 0.04226 ± 0.0003 mPa·s
7602.2 kPa | 341.152 ± 1 kg/m3 | 0.0423 ± 0.0003 mPa·s
7603 kPa | 341.162 ± 1 kg/m3 | 0.0423 ± 0.0003 mPa·s
7700.1 kPa | 342.393 ± 0.75 kg/m3 | 0.04256 ± 0.00026 mPa·s
7700.8 kPa | 342.402 ± 0.75 kg/m3 | 0.04257 ± 0.00026 mPa·s
7701.7 kPa | 342.413 ± 0.75 kg/m3 | 0.04257 ± 0.00026 mPa·s
9627.4 kPa | 361.481 ± 1.2 kg/m3 | 0.04726 ± 0.00038 mPa·s
9628.1 kPa | 361.486 ± 1.2 kg/m3 | 0.04728 ± 0.00038 mPa·s
9703.1 kPa | 362.086 ± 0.8 kg/m3 | 0.04743 ± 0.00029 mPa·s
9703.6 kPa | 362.09 ± 0.8 kg/m3 | 0.04742 ± 0.00029 mPa·s
9705 kPa | 362.101 ± 0.8 kg/m3 | 0.04738 ± 0.00029 mPa·s
12507 kPa | 380.383 ± 1.3 kg/m3 | 0.05257 ± 0.00045 mPa·s
12508 kPa | 380.388 ± 1.3 kg/m3 | 0.05257 ± 0.00045 mPa·s
12509 kPa | 380.392 ± 1.3 kg/m3 | 0.05255 ± 0.00045 mPa·s
12544 kPa | 380.585 ± 0.86 kg/m3 | 0.05276 ± 0.00032 mPa·s
12545 kPa | 380.588 ± 0.86 kg/m3 | 0.05268 ± 0.00032 mPa·s
12549 kPa | 380.613 ± 0.86 kg/m3 | 0.05262 ± 0.00032 mPa·s
12554 kPa | 380.638 ± 0.86 kg/m3 | 0.05258 ± 0.00032 mPa·s and 0.0526 ± 0.00032 mPa·s
12558 kPa | 380.661 ± 0.86 kg/m3 | 0.05263 ± 0.00032 mPa·s
12559 kPa | 380.663 ± 0.86 kg/m3 | 0.05263 ± 0.00032 mPa·s
15941 kPa | 396.414 ± 1.3 kg/m3 | 0.05768 ± 0.00072 mPa·s
15981 kPa | 396.579 ± 1.3 kg/m3 | 0.05768 ± 0.00079 mPa·s
15985 kPa | 396.595 ± 1.3 kg/m3 | 0.05765 ± 0.00091 mPa·s
15986 kPa | 396.599 ± 1.3 kg/m3 | 0.05767 ± 0.00082 mPa·s
15987 kPa | 396.601 ± 1.3 kg/m3 | 0.05769 ± 0.00072 mPa·s
16874 kPa | 400.063 ± 0.98 kg/m3 and 400.065 ± 0.98 kg/m3 | 0.05888 ± 0.00036 mPa·s and 0.05882 ± 0.00036 mPa·s
16875 kPa | 400.066 ± 0.98 kg/m3 and 400.067 ± 0.98 kg/m3 and 400.068 ± 0.98 kg/m3 | 0.05887 ± 0.00036 mPa·s [middle of 4 runs]
16876 kPa | 400.071 ± 0.98 kg/m3 and 400.073 ± 0.98 kg/m3 | 0.05885 ± 0.00036 mPa·s
16877 kPa | 400.075 ± 0.98 kg/m3 | 0.05884 ± 0.00036 mPa·s
19746 kPa | 410.021 ± 1 kg/m3 and 410.023 ± 1 kg/m3 | 0.06238 ± 0.00038 mPa·s and 0.06241 ± 0.00038 mPa·s
19749 kPa | 410.03 ± 1 kg/m3 | 0.06236 ± 0.00038 mPa·s
19750 kPa | 410.034 ± 1 kg/m3 | 0.06242 ± 0.00038 mPa·s
19751 kPa | 410.039 ± 1 kg/m3 | 0.0624 ± 0.00038 mPa·s
23209 kPa | 420.154 ± 1.2 kg/m3 | 0.06633 ± 0.0004 mPa·s
23210 kPa | 420.157 ± 1.2 kg/m3 and 420.156 ± 1.2 kg/m3 | 0.06633 ± 0.0004 mPa·s and 0.0663 ± 0.0004 mPa·s and 0.06634 ± 0.0004 mPa·s
24530 kPa | 423.617 ± 1.2 kg/m3 and 423.615 ± 1.2 kg/m3 | 0.06776 ± 0.00041 mPa·s and 0.06778 ± 0.00041 mPa·s and 0.06781 ± 0.00041 mPa·s
24531 kPa | 423.619 ± 1.2 kg/m3 | 0.06774 ± 0.00041 mPa·s and 0.06775 ± 0.00041 mPa·s
25875 kPa | 426.955 ± 1.2 kg/m3 | 0.06913 ± 0.00042 mPa·s
25877 kPa | 426.961 ± 1.2 kg/m3 | 0.06914 ± 0.00042 mPa·s
25879 kPa | 426.966 ± 1.2 kg/m3 | 0.06906 ± 0.00042 mPa·s
25881 kPa | 426.969 ± 1.2 kg/m3 | 0.06911 ± 0.00042 mPa·s
29053 kPa | 434.215 ± 1.3 kg/m3 | 0.07235 ± 0.00044 mPa·s
29057 kPa | 434.225 ± 1.3 kg/m3 | 0.07232 ± 0.00044 mPa·s
29063 kPa | 434.238 ± 1.3 kg/m3 | –
